Experimental data reported in patent US12528800B2, “Pesticidal compounds” (BASF SE, priority 2018, dated 2026).

What was measured:
Format in all cases: in vivo
[1] = tested on: Silverleaf whitefly (Bemisia argentifolii) (adults); assay: Action on silverleaf whitefly (Bemisia argentifolii) adults, sprayed cotton plants; settings: 72 h, 3 days after treatment, read-out: mortality in comparison with untreated controls
Method: (§1) The active compounds were formulated by a Tecan liquid handler in 100% cyclohexanone as a 10,000 ppm solution supplied in tubes. The 10,000 ppm solution was serially diluted in 100% cyclohexanone to make interim solutions. These served as stock solutions for which final dilutions were made by the Tecan in 50% acetone:50% water (v/v) into 5 or 10 ml glass vials. A nonionic surfactant (Kinetic®) was included in the solution at a volume of 0.01% (v/v). The vials were then inserted into an automated electrostatic sprayer equipped with an atomizing nozzle for application to plants/insects.
Cotton plants at the cotyledon stage (one plant per pot) were sprayed by an automated electrostatic plant sprayer equipped with an atomizing spray nozzle. The plants were dried in the sprayer fume hood and then removed from the sprayer. Each pot was placed into a plastic cup and about 10 to 12 whitefly adults (approximately 3-5 days old) were introduced. The insects were collected using an aspirator and a nontoxic Tygon® tubing connected to a barrier pipette tip. The tip, containing the collected insects, was then gently inserted into the soil containing the treated plant, allowing insects to crawl out of the tip to reach the foliage for feeding. Cups were covered with a reusable screened lid. Test plants were maintained in a growth room at about 25° C. and about 20-40% relative humidity for 3 days, avoiding direct exposure to fluorescent light (24 hour photoperiod) to prevent trapping of heat inside the cup. Mortality was assessed 3 days after treatment, compared to untreated control plants.

[2] = tested on: tobacco budworm (Heliothis virescens); assay: Action on tobacco budworm (Heliothis virescens), microtiter plate diet test; settings: 120 h, egg and larval mortality after 5 days, read-out: mortality in comparison with untreated controls
Method: For evaluating control of tobacco budworm (Heliothis virescens) the test unit consisted of 96-well-microtiter plates containing an insect diet and 15-25 H. virescens eggs.
The compounds were formulated using a solution containing 75% v/v water and 25% v/v DMSO. Different concentrations of formulated compounds were sprayed onto the insect diet at 10 μl, using a custom-built micro atomizer, at two replications.
After application, microtiter plates were incubated at about 28+1° C. and about 80+5% relative humidity for 5 days. Egg and larval mortality were then visually assessed.

[3] = tested on: Diamond back moth (Plutella xylostella); assay: Action on diamond back moth (Plutella xylostella), cabbage leaf dip; settings: foliar, 3rd instar larvae on dipped cabbage leaves, 72 hours after treatment, read-out: mortality in comparison with untreated controls
Method: The active compound is dissolved at the desired concentration in a mixture of 1:1 (v/v) distilled water: acetone. Surfactant (Kinetic® HV) is added at a rate of 0.01% (v/v). The test solution is prepared at the day of use.
Leaves of cabbage were dipped in test solution and air-dried. Treated leaves were placed in petri dishes lined with moist filter paper and inoculated with ten 3rd instar larvae. Mortality was recorded 72 hours after treatment. Feeding damages were also recorded using a scale of 0-100%.

[4] = tested on: yellow fever mosquito (Aedes aegypti); assay: whole plant or invertebrate; settings: 48 h, larval mortality visually assessed after 2 days, read-out: mortality in comparison with untreated controls
Method: For evaluating control of yellow fever mosquito (Aedes aegypti) the test unit consisted of 96-well-microtiter plates containing 200 μl of tap water per well and 5-15 freshly hatched A. aegypti larvae.
The active compounds or mixtures were formulated using a solution containing 75% (v/v) water and 25% (v/v) DMSO. Different concentrations of formulated compounds or mixtures were sprayed onto the insect diet at 2.5 μl using a custom built micro atomizer, at two replications.
For experimental mixtures in these tests identical volumes of both mixing partners at the desired concentrations respectively, were mixed together.
After application, microtiter plates were incubated at 28+1° C., 80+5% RH for 2 days. Larval mortality was then visually assessed.

[5] = tested on: boll weevil (Anthonomus grandis); assay: Action on boll weevil (Anthonomus grandis), microtiter plate diet test; settings: 120 h, egg and larval mortality after 5 days, read-out: mortality in comparison with untreated controls
Method: For evaluating control of boll weevil (Anthonomus grandis) the test unit consisted of 96-well-microtiter plates containing an insect diet and 5-10 A. grandis eggs.
The compounds were formulated using a solution containing 75% (v/v) water and 25% (v/v) DMSO. Different concentrations of formulated compounds were sprayed onto the insect diet at 5 μl, using a custom built micro atomizer, at two replications.
After application, microtiter plates were incubated at about 25+1° C. and about 75+5% relative humidity for 5 days. Egg and larval mortality was then visually assessed.

[6] = tested on: Orchid thrips (Dichromothrips corbetti); assay: Action on orchid thrips (Dichromothrips corbetti), floral-immersion technique; settings: adult thrips, 72 hours after treatment, read-out: mortality in comparison with untreated controls
Method: Dichromothrips corbetti adults used for bioassay were obtained from a colony maintained continuously under laboratory conditions. For testing purposes, the test compound is diluted in a 1:1 mixture of acetone:water (vol:vol), plus Kinetic® HV at a rate of 0.01% v/v.
Thrips potency of each compound was evaluated by using a floral-immersion technique. All petals of individual, intact orchid flowers were dipped into treatment solution and allowed to dry in Petri dishes. Treated petals were placed into individual re-sealable plastic along with about 20 adult thrips. All test arenas were held under continuous light and a temperature of about 28° C. for duration of the assay. After 3 days, the numbers of live thrips were counted on each petal. The percent mortality was recorded 72 hours after treatment.

[7] = tested on: Southern armyworm (Spodoptera eridania), 2nd instar larvae; assay: Action on southern armyworm (Spodoptera eridania), 2nd instar larvae, sprayed lima bean plants; settings: 96 h, 2nd instar larvae on lima bean plants, 4 days after treatment, read-out: mortality in comparison with untreated controls
Method: as §1, with “into 10” for “into 5”, “or 20” for “or 10”
Lima bean plants (variety Sieve) were grown 2 plants to a pot and selected for treatment at the 1st true leaf stage. Test solutions were sprayed onto the foliage by an automated electrostatic plant sprayer equipped with an atomizing spray nozzle. The plants were dried in the sprayer fume hood and then removed from the sprayer. Each pot was placed into perforated plastic bags with a zip closure. About 10 to 11 armyworm larvae were placed into the bag and the bags zipped closed. Test plants were maintained in a growth room at about 25° C. and about 20-40% relative humidity for 4 days, avoiding direct exposure to fluorescent light (24 hour photoperiod) to prevent trapping of heat inside the bags. Mortality and reduced feeding were assessed 4 days after treatment, compared to untreated control plants.

For CC(C)c1ccccc1NC(=S)N/N=C/c1ccc(-c2cc(NC(=O)c3ccc(OC(F)(F)F)cc3)n(C)n2)cc1 [Compound C-1, N-[5-[4-[(E)-[(2-isopropylphenyl)carbamothioylhydrazono]methyl]phenyl]-2-methyl-pyrazol-3-yl]-4-(trifluoromethoxy)benzamide], the mortality at 300 ppm [1] was ≥ 75%, the mortality at 800 ppm [2] was ≥ 75% and the mortality at 500 ppm [3] was ≥ 75%. The mortality at 800 ppm [4] was ≥ 50%, the mortality at 800 ppm [5] was ≥ 75% and the mortality at 500 ppm [6] was ≥ 75%. The mortality at 300 ppm [7] was ≥ 75%.

In the case of CC(C)c1ccccc1NC(=S)N/N=C/c1ccc(-c2cc(OCc3ccc(OC(F)(F)F)cc3)n(C)n2)cc1 [Compound C-10, 1-(2-isopropylphenyl)-3-[(E)-[4-[1-methyl-5-[[4-(trifluoromethoxy)phenyl]methoxy]pyrazol-3-yl]phenyl]methyleneamino]thiourea], the mortality at 300 ppm [1] is reported as ≥ 75%, the mortality at 800 ppm [2] is reported as ≥ 75% and the mortality at 500 ppm [3] is reported as ≥ 75%. The mortality at 800 ppm [5] was ≥ 75%, the mortality at 500 ppm [6] was ≥ 75% and the mortality at 300 ppm [7] was ≥ 75%.

For CC(C)c1ccccc1NC(=S)N/N=C/c1ccc(-c2cc(COc3ccc(OC(F)(F)F)cc3)n(C)n2)cc1 [Compound C-52, 1-(2-isopropylphenyl)-3-[(E)-[4-[1-methyl-5-[[4-(trifluoromethoxy)phenoxy]methyl]pyrazol-3-yl]phenyl]methyleneamino]thiourea], the mortality at 300 ppm [1] was ≥ 75%, the mortality at 800 ppm [2] was ≥ 75% and the mortality at 500 ppm [3] was ≥ 75%. The mortality at 800 ppm [4] was ≥ 50%, the mortality at 800 ppm [5] was ≥ 75% and the mortality at 500 ppm [6] was ≥ 75%. The mortality at 300 ppm [7] was ≥ 75%.

With CC(C)c1ccccc1N1C(=O)CS/C1=N\N=C\c1ccc(-c2nc(NC(=O)c3ccc(OC(F)(F)F)cc3)n(C)n2)cc1 [Compound C-64, N-[5-[4-[(E)-[(Z)-[3-(2-isopropylphenyl)-4-oxo-thiazolidin-2-ylidene]hydrazono]methyl]phenyl]-2-methyl-1,2,4-triazol-3-yl]-4-(trifluoromethoxy)benzamide] the mortality at 800 ppm [2] was ≥ 75%, the mortality at 500 ppm [3] was ≥ 75% and the mortality at 800 ppm [4] was ≥ 50%. The mortality at 800 ppm [5] was ≥ 75%, the mortality at 500 ppm [6] was ≥ 75% and the mortality at 300 ppm [7] was ≥ 75%.
